For one data set, the target named is T1, AR receptor (Homo sapiens, UniProt P10275).
T1 construct: expressed in transfected cells; host or cells: PALM (PC3 stably transfected with PMMTV-neo-Luc and pSG5puro-AR)
T1 sequence (P10275 1-920): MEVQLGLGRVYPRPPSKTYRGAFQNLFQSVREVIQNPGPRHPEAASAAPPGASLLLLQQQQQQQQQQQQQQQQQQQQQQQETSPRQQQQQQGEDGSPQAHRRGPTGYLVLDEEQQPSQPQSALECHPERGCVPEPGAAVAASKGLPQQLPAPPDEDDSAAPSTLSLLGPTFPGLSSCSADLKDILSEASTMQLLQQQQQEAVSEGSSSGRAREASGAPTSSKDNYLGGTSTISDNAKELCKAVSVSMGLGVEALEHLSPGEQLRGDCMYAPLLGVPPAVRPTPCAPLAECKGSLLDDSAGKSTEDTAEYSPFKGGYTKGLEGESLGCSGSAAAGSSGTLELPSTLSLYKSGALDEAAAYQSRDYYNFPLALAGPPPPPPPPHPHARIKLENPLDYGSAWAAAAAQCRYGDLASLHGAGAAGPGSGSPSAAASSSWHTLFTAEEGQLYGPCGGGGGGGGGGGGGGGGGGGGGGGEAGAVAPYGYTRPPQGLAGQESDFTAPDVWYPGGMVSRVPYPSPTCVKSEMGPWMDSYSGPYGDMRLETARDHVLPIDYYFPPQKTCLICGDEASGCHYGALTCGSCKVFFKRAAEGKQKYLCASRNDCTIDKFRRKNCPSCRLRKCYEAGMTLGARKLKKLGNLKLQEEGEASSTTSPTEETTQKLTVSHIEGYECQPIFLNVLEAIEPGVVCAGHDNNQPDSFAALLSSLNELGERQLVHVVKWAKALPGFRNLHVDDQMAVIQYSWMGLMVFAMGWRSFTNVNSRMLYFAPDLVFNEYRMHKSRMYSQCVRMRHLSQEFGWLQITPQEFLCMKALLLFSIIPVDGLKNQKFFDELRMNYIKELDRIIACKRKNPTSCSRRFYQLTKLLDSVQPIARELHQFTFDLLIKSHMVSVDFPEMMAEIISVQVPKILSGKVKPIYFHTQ
As to the kind of experiment: transactivation test in PALM (PC3 Androgen receptor Luciferase MMTV) cell line, cross curves against methyltrienolone. As to conditions: cross curves vs reference agonist methyltrienolone, read-out: Kdapp (apparent dissociation constant). Type of data set: cell-based. How it is done:
The compounds according to the invention show inhibitory properties on receptors of AR type. This AR receptor-inhibiting activity is measured in a transactivation test through the KdR (resting), KdA (active) and Kdapp (apparent) dissociation constants according to the method set out in J. Molecular Biology (1965), 12(1), 88-118, Monod J. et al.
The expression “AR-type receptor inhibitor” means, according to the invention, any compound which has a Kdapp dissociation constant of less than or equal to 1 μM, and a KdR/Kda ratio ≦10, in a transactivation test.
The transactivation test is carried out in the PALM (PC3 Androgen receptor Luciferase MMTV) cell line which is a stable transfectant containing the PMMTV-neo-Luc (reporter gene) and pSG5puro-AR plasmids.
In this study, the affinity of each product for the 2 receptor states (KdR and KdA) is determined, as is an apparent Kd (Kdpp). This constant is a result of the 2 Kd, but also depends on the initial equilibrium of the receptor between the active state and the resting state (L0) and on its expression level. It is determined by means of the following formula: 1/KdApp=(L0/(1+L0))x(1/KdR)+(1/(1+L0))x(1/KdA)
To determine these constants, “cross curves” of the test product against a reference agonist, methyltrienolone, are produced in 96-well plates. The test product is used at 10 concentrations and the reference agonist at 7 concentrations.

On to `Oc1ccccc1CNc1cncc(Br)c1` [Compound 1, 2-[(5-Bromopyridin-3-ylamino)methyl]phenol], for which the melting point (as a rule, the temperature of the solid-liquid transition) worked out at 184 °C. Further, the Kd on AR receptor was 6 nM.
On to `Oc1cccc(F)c1CNc1cncc(Br)c1` [Compound 2, 2-[(5-Bromopyridin-3-ylamino)methyl]-3-fluorophenol], for which, on AR receptor, the Kd worked out at 5 nM.
With `N#Cc1cncc(NCc2ccccc2O)c1` [Compound 4, 5-(2-Hydroxybenzylamino)nicotinonitrile], the Kd on AR receptor turned out to be 200 nM.
On the same count and under the same terms, under `CCC(Nc1cncc(Br)c1)c1ccccc1O` (stereo not drawn) [Compound 9, 2-[1-(5-Bromopyridin-3-ylamino)propyl]phenol] stands 60 nM.
Same read-out and setting: under `Cc1cncc(NCc2ccccc2O)c1` [Compound 14, 2-[(5-Methylpyridin-3-ylamino)methyl]phenol] stands 15 nM.

The values are drawn from patent US9120753B2, “Phenol derivatives and pharmaceutical or cosmetic use thereof” (GALDERMA RESEARCH & DEVELOPMENT, priority 2009, dated 2015).
